According to patent publication US6686394B1, “Aryl-chloro-ethyl ureas” (Sovar, Societe en Commandite, priority 1999, dated 2004):

Key:
CHO = assay: Cytotoxicity assay G50, MTT or resazurin (Example 29); type: cell-based, Chinese Hamster; settings: Cricetulus griseus; cell line CHO
Procedure: (§1) The MTT assay was as described above in Example 1. The Resazurin assay was performed as follows:
(§2) Aspirate the supernatant (cell suspension: centrifuge first)
(§3) Add 100 μL NaCl 0.9% (saline)
(§4) Add 50 μL RZ (resazurin 125 μg/ml/PBS: RPMI without FBS; 1:4)
(§5) Collect fluorescence data at different time.

B16-F0 [1] = assay: as above; type: cell-based; settings: Mus musculus, B16F0; cell line B16-F0
Procedure: (§6) Cell culture. Tumor cell lines (B16-F0, Caco-2, DU-145, HT-29, MDA-MB-231 and other cell lines described so far in the patent application) were obtained from the American Type Culture Collection (ATCC HTB-26; Bethesda, Md.). Cells were grown in RPMI 1640 medium supplemented with 10% fetal bovine serum (Hyclone, Road Logan, Utah) and were cultured in a humidified atmosphere at 37° C. in 5% CO2.
(§7) Drugs: All drugs were dissolved in DMSO and the final concentration of DMSO in the culture medium was maintained at 0.5% (v/v).
(§8) Cytotoxiciy assays. At day-1, tumor cells in suspension in 100 μl were plated in microtiter plates (96 wells). On day-0, tumor cells were treated by addition of escalating concentrations of the drug (100 μl solution). On that day, the number of living cells was determined in wells that were untreated. The number of living cells is determined using either MTT or resazurin assays. Growth inhibition activity of these compounds was expressed as the concentration of CAU inhibiting cell growth by 50% G50 in the following table
as §1, §2, §3, §4, §5

MDA-MB-231 [2] = assay: as above; type: cell-based; settings: Homo sapiens; cell line MDA-MB-231
Procedure: as §6, §7, §8, §1, §2, §3, §4, §5

DU-145 [3] = assay: as above; type: cell-based; settings: Homo sapiens; cell line DU-145
Procedure: as §6, §7, §8, §1, §2, §3, §4, §5

Caco-2 [4] = assay: as above; type: cell-based; settings: Homo sapiens; cell line Caco-2
Procedure: as §6, §7, §8, §1, §2, §3, §4, §5

HT-29 [5] = assay: as above; type: cell-based; settings: Homo sapiens; cell line HT-29
Procedure: as §6, §7, §8, §1, §2, §3, §4, §5

MCF-7 = assay: as above; type: cell-based; settings: Homo sapiens, MCF7; cell line MCF-7
Procedure: as §1, §2, §3, §4, §5

K562 = assay: as above; type: cell-based; settings: Homo sapiens; cell line K562
Procedure: as §1, §2, §3, §4, §5

L1210 = assay: as above; type: cell-based; settings: Mus musculus; cell line L1210
Procedure: as §1, §2, §3, §4, §5

T24 = assay: as above; type: cell-based; settings: Homo sapiens, T-24; cell line T24
Procedure: as §1, §2, §3, §4, §5

MDA-MB-231 [6] = assay: Cytotoxicity assay C50/G50, MTT or resazurin (Example 16); type: cell-based, human; settings: for IC50: Homo sapiens, day-3, read-out: G50 (concentration inhibiting cell growth by 50%); for C50 (concentration needed to kill 50% of the cellular population present at the beginning): day-3
Procedure: as §6, §7
as §8, with “This was performed in order to be able to evaluate the toxic concentration of the drug needed to kill 50% of the cellular population present at the beginning of the experiments. This value is represented by C50 in the table. At day-3, the” for “The”
as §1, §2, §3
(§9) Add 50 μL RZ (resazurin 125 μg/ml/PBS: RPMI without FBS; 1:4) Incubate at 37° C.
as §5

HT-29 [7] = assay: as above; type: cell-based, human; settings: for IC50: Homo sapiens, day-3, read-out: G50 (concentration inhibiting cell growth by 50%); for C50 (concentration needed to kill 50% of the cellular population present at the beginning): day-3
Procedure: as §6, §7
as §8, with “This was performed in order to be able to evaluate the toxic concentration of the drug needed to kill 50% of the cellular population present at the beginning of the experiments. This value is represented by C50 in the table. At day-3, the” for “The”
as §1, §2, §3, §9, §5

B16-F0 [8] = assay: as above; type: cell-based; settings: for IC50: Mus musculus, B16F0, day-3, read-out: G50 (concentration inhibiting cell growth by 50%); for C50 (concentration needed to kill 50% of the cellular population present at the beginning): day-3
Procedure: as §6, §7
as §8, with “This was performed in order to be able to evaluate the toxic concentration of the drug needed to kill 50% of the cellular population present at the beginning of the experiments. This value is represented by C50 in the table. At day-3, the” for “The”
as §1, §2, §3, §9, §5

DU-145 [9] = assay: as above; type: cell-based; settings: for IC50: Homo sapiens, day-3, read-out: G50 (concentration inhibiting cell growth by 50%); for C50 (concentration needed to kill 50% of the cellular population present at the beginning): day-3
Procedure: as §6, §7
as §8, with “This was performed in order to be able to evaluate the toxic concentration of the drug needed to kill 50% of the cellular population present at the beginning of the experiments. This value is represented by C50 in the table. At day-3, the” for “The”
as §1, §2, §3, §9, §5

Caco-2 [10] = assay: as above; type: cell-based; settings: for IC50: Homo sapiens, day-3, read-out: G50 (concentration inhibiting cell growth by 50%); for C50 (concentration needed to kill 50% of the cellular population present at the beginning): day-3
Procedure: as §6, §7
as §8, with “This was performed in order to be able to evaluate the toxic concentration of the drug needed to kill 50% of the cellular population present at the beginning of the experiments. This value is represented by C50 in the table. At day-3, the” for “The”
as §1, §2, §3, §9, §5

Compound | IC50 (CHO) | IC50 (B16-F0 [1]) | IC50 (MDA-MB-231 [2]) | IC50 (DU-145 [3]) | IC50 (Caco-2 [4]) | IC50 (HT-29 [5]) | IC50 (MCF-7) | IC50 (K562) | IC50 (L1210) | IC50 (T24) | IC50 (MDA-MB-231 [6]) | C50 (concentration needed to kill 50% of the cellular population present at the beginning) (MDA-MB-231 [6]) | IC50 (HT-29 [7]) | C50 (concentration needed to kill 50% of the cellular population present at the beginning) (HT-29 [7]) | IC50 (B16-F0 [8]) | C50 (concentration needed to kill 50% of the cellular population present at the beginning) (B16-F0 [8]) | IC50 (DU-145 [9]) | C50 (concentration needed to kill 50% of the cellular population present at the beginning) (DU-145 [9]) | IC50 (Caco-2 [10]) | C50 (concentration needed to kill 50% of the cellular population present at the beginning) (Caco-2 [10])
CCCCCCOc1ccc(NC(=O)N[C@@H](CC)CCl)cc1 [Example 28] | 3.28 µM | 8.26 µM | 8.75 µM | 9.46 µM | 9.5 µM | 8.12 µM | 10.4 µM | 3.88 µM | 7.42 µM | 7.16 µM |  |  |  |  |  |  |  |  |  | 
CCCC(CCl)NC(=O)Nc1ccc(C2CCCCC2)cc1 (racemic) [Example 25] | 2.12 µM | 4.14 µM | 6.37 µM | 4.3 µM | 6.04 µM | 3.03 µM | 5.05 µM | 4.93 µM | 4.12 µM | 4.24 µM |  |  |  |  |  |  |  |  |  | 
CCCCCCCc1ccc(NC(=O)N[C@H](CC)CCl)cc1 [Example 24] | 3.14 µM | 3.74 µM | 5.17 µM | 4.02 µM | 4.85 µM | 2.94 µM | 3.78 µM | 2.9 µM | 4.04 µM | 3.61 µM |  |  |  |  |  |  |  |  |  | 
CCCCCCCc1ccc(NC(=O)N[C@@H](CC)CCl)cc1 [Example 23] | 4.2 µM | 4.77 µM | 6.12 µM | 4.89 µM | 6.32 µM | 5.01 µM | 4.2 µM | 3.59 µM | 5.67 µM | 3.93 µM |  |  |  |  |  |  |  |  |  | 
CCCCCCOc1ccc(NC(=O)N[C@@H](C)CCl)cc1 [Example 27] | 3.66 µM | 8.45 µM | 9.08 µM | 12.6 µM | 7.98 µM | 10.5 µM | 7.99 µM | 7.48 µM | 8.2 µM | 9.93 µM |  |  |  |  |  |  |  |  |  | 
CCCCCCOc1ccc(NC(=O)N[C@H](C)CCl)cc1 [Example 26] | 2.63 µM | 6.38 µM | 10.5 µM | 13.2 µM | 8.57 µM | 9.55 µM | 8.3 µM | 2.68 µM | 6.21 µM | 7.14 µM |  |  |  |  |  |  |  |  |  | 
CC[C@@H](CCl)NC(=O)Nc1ccc(OC)c(OC)c1 [Example 19] | > 100 µM | > 100 µM | > 100 µM | > 100 µM | > 100 µM | > 100 µM | > 100 µM | > 100 µM | > 100 µM | > 100 µM |  |  |  |  |  |  |  |  |  | 
C[C@@H](CCl)NC(=O)Nc1ccc(C2CCCCC2)cc1 [Example 8] |  |  |  |  |  |  |  |  |  |  | 27.6 µM | 42.3 µM | 17.1 µM | 23.9 µM | 21.8 µM | 22.1 µM | 8.6 µM | 25.2 µM | 15.4 µM | 20.3 µM
CC[C@@H](CCl)NC(=O)Nc1ccc(C2CCCCC2)cc1 [Example 13] |  |  |  |  |  |  |  |  |  |  | 16.3 µM | 32.5 µM | 9.8 µM | 16.3 µM | 15.5 µM | 17.7 µM | 6.9 µM | 16.2 µM | 9.9 µM | 15.6 µM
COc1ccc(NC(=O)N[C@H](C)CCl)cc1OC [Example 17] | 32.2 µM | 26.4 µM | 43.6 µM | 34.9 µM | > 100 µM | 14.8 µM | 25.1 µM | 9.62 µM | 10.3 µM | 12.4 µM |  |  |  |  |  |  |  |  |  | 
CCCCCCc1ccc(NC(=O)N[C@@H](C)CCl)cc1 [Example 7] |  |  |  |  |  |  |  |  |  |  | 11.7 µM | 31.9 µM | 5.1 µM | 12.8 µM | 16.3 µM | 18.2 µM | 6.3 µM | 11.8 µM | 12.6 µM | 21.1 µM
C[C@H](CCl)NC(=O)Nc1ccc(C2CCCCC2)cc1 [Example 9] |  |  |  |  |  |  |  |  |  |  | 27.5 µM | 42.9 µM | 19 µM | 28.1 µM | 15.4 µM | 17.4 µM | 7.8 µM | 27.6 µM | 8.6 µM | 14.7 µM
CCCCCCc1ccc(NC(=O)N[C@@H](CC)CCl)cc1 [Example 11] |  |  |  |  |  |  |  |  |  |  | 15.1 µM | 30.1 µM | 13.1 µM | 20.8 µM | 14.1 µM | 18.3 µM | 4.6 µM | 15.8 µM | 7.5 µM | 10.9 µM
CC[C@H](CCl)NC(=O)Nc1ccc(C2CCCCC2)cc1 [Example 12] |  |  |  |  |  |  |  |  |  |  | 19.6 µM | 40.3 µM | 13.6 µM | 22.8 µM | 17.3 µM | 21.5 µM | 7.3 µM | 22.2 µM | 10 µM | 17.7 µM
CCCCCCc1ccc(NC(=O)N[C@H](C)CCl)cc1 [Example 6] |  |  |  |  |  |  |  |  |  |  | 31.5 µM | 43.3 µM | 32.3 µM | 44.5 µM | 26.3 µM | 31.3 µM | 18.9 µM | 39.5 µM | 35.8 µM | 44.2 µM
CCCCCCc1ccc(NC(=O)N[C@H](CC)CCl)cc1 [Example 10] |  |  |  |  |  |  |  |  |  |  | 18 µM | 40.6 µM | 20.8 µM | 36.8 µM | 18.8 µM | 24.9 µM | 7.4 µM | 27.2 µM | 10.2 µM | 13.7 µM
CCCCCCc1ccc(NC(=O)NC(CCl)CCC)cc1 (racemic) [Example 14] |  |  |  |  |  |  |  |  |  |  | 18.9 µM | 32.3 µM | 10.7 µM | 20.3 µM | 15.8 µM | 21.3 µM | 10.9 µM | 19.6 µM | 12.7 µM | 21.1 µM
